From patent US5763476A, “Sublingual or buccal pharmaceutical composition” (priority 1994, dated 1998)

Tests used:
human volunteers = experiment: Phase I clinical studies, peroral administration; type: in vivo
[1] = Cardiovascular side effects on sublingual or buccal administration; type: in vivo
[2] = Absorption from aqueous compositions kept under the tongue or in the mouth; type: in vivo; details: aqueous compositions kept under the tongue or in the mouth of a patient
histamine = details: cited from earlier work
serotonin = details: cited from earlier work

CN1C[C@@H]2c3ccccc3Oc3ccc(Cl)cc3[C@H]2C1 (relative stereo) [trans-5-chloro-2-methyl-2,3,3a,12b-tetrahydro-1H-dibenz[2,3:6,7]oxepino[4,5-c]pyrrole]
Cardiotoxic effects (human volunteers): serious cardiotoxic effects, e.g. postural hypotension and/or impairment of baroreceptor functioning, occurred | Cardiovascular side effects [1]: substantially less cardiovascular side effects | Absorption [2]: rapidly absorbed | Antihistamine activity (histamine): antihistamine and antiserotonin activities | Antiserotonin activity (serotonin): antihistamine and antiserotonin activities
